Where two headings read alike, the source gives them in different places.
How the values were obtained:
Assay type in all cases: biochemical
ALDH1a1 = ALDH1a1 (Homo sapiens (Human), UniProt P00352); assay: ALDH assay (diaphorase/resazurin), ALDH1a1 inhibition
From the text: (§1) ALDH catalyzes the oxidation of acetaldehyde to acetic acid while reducing NAD+ to NADH. The formation of NADH is fluorescently detected using diaphorase/resazurin system. Diaphorase utilizes NADH formed from ALDH reaction to produce the fluorescent molecule resorufin from resazurin. See Davis, M. I.; Shen, M.; Simeonov, A.; Hall, M. D., Diaphorase Coupling Protocols for Red-Shifting Dehydrogenase Assays.
(§2) The reagent ALDH1a1 is from R&D Systems (Minneapolis, MN). ALDH2 is from Prospect Bio (East Brunswick, NJ). Acetaldehyde is from Cayman Chemicals (Ann Arbor, MI). NAD^+, and Resazurin sodium salt are from Sigma (St. Louis, MO). Diaphorase is from Reaction Biology (Malvern PA). Zaba micro spin columns are from ThermoFisher scientific (Waltham, MA). […] Desalted samples from each enzyme were pooled together and placed in ice until use. Reaction buffer (50 mM sodium pyrophosphate buffer at pH 8.8, 0.01% Brij35) degassed using vacuum for 10 mins until no visible air bubbles were seen.
(§3) 5 μl of reaction buffer was delivered to ‘no enzyme’ background control wells. Test compounds were prepared in 100% DMSO by serial dilution in 100× of assay concentration. After adding the test compounds, reaction plate was centrifuged briefly in 1200 rpm, then incubated for 20 min at room temperature, to pre-incubate enzyme and compounds. […] Reaction plate was briefly centrifuged and sealed with a plastic film to limit evaporation. After incubation at room temperature for 60 min, 10 μl of detection reagent (15 μg/ml diaphorase, 30 μM resazurin prepared in the degassed reaction buffer) was added. Reaction plate was briefly centrifuged and incubated for 10 minutes at room temperature in the dark.

ALDH2 = ALDH2 (Homo sapiens (Human), UniProt P05091); assay: ALDH assay (diaphorase/resazurin), ALDH2 inhibition
Sequence of ALDH2 (P05091 18-517): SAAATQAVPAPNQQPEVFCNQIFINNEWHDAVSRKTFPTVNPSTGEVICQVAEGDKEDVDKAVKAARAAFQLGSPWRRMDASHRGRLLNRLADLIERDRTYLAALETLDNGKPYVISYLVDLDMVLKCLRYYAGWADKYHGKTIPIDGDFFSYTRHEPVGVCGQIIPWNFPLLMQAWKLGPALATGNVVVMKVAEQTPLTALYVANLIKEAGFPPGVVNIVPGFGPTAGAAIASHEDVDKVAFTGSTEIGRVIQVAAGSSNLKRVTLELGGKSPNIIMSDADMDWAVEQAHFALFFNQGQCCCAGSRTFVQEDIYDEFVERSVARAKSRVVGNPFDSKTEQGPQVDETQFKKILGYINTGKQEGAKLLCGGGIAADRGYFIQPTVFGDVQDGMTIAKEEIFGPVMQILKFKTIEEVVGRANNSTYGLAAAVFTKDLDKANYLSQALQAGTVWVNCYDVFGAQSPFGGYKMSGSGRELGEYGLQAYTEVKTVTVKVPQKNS
From the text: as §1, §2, §3

human FAAH (hFAAH) = human FAAH (hFAAH) (Homo sapiens (Human), UniProt O00519); assay: FAAH enzyme inhibition assay (Cayman kit, AMC-arachidonoyl amide); conditions: for IC50: Table II, average of at least two experiments, read-out: IC50 (μM) ± SE (hFAAH)
Sequence of human FAAH (hFAAH) (O00519 whole entry): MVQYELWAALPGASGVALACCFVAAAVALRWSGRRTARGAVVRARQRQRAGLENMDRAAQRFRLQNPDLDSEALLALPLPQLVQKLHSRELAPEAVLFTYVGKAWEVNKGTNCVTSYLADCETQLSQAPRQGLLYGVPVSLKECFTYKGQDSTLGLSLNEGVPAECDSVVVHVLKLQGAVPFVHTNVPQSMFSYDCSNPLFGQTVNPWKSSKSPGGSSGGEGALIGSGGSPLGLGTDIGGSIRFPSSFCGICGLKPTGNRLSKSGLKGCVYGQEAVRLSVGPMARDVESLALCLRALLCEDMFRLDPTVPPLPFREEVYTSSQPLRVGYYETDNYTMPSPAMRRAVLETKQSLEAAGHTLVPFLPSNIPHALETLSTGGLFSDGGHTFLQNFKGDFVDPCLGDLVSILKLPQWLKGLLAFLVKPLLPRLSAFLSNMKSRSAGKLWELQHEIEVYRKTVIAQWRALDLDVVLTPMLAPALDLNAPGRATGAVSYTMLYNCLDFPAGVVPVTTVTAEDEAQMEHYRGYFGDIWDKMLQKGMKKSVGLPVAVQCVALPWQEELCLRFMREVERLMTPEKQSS
Method: FAAH inhibition assay was performed using Fatty Acid Amide Hydrolase Inhibitor Screening Assay Kit (Item #10005196), Cayman (1180 E Ellsworth Rd Ann Arbor, MI, USA). […] Manufacturer's protocol was followed to perform the assay. The assay buffer (125 mM Tri-HCl with 1 mM EDTA, pH 9.0) was used to dilute the FAAH human recombinant enzyme. AMC-Arachidonoyl amide, at a concentration of 400 μM was then used as the FAAH substrate. Samples were mixed for 30 s and incubated at 37° C. for 30 min. The fluorescent by-product AMC (7-amino-4-methylcoumarin) released by the FAAH enzyme was detected and quantified at an excitation wavelength of 355 nm and emission wavelength of 460 nm.

human MAGL (hMAGL) = human MAGL (hMAGL) (Homo sapiens (Human), UniProt Q99685); assay: MAGL enzyme inhibition assay (4-nitrophenylacetate); conditions: for IC50: Table II, average of at least two experiments, read-out: IC50 (μM) ± SE (hMAGL); for decrease in inhibitory activity against MAGL: relative to disulfiram / unsubstituted analog
Sequence of human MAGL (hMAGL) (Q99685 whole entry): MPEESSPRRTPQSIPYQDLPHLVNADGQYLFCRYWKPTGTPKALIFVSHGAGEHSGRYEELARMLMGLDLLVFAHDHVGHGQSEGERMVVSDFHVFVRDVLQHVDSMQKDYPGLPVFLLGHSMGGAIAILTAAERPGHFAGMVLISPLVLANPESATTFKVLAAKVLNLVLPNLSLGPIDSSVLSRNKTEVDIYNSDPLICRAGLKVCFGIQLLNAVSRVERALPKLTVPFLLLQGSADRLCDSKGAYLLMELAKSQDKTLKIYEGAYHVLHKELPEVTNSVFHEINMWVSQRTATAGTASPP
Method: The plate was mixed for 30 s and incubated at room temperature for 30 min.

[1] = Table III, read-out: Aldh1a1 (IC50, μM) ± SE
[2] = Table IA, mean of at least two independent experiments, read-out: IC50 (μM) ± SE (ALDH1a1)
[3] = Table IB, mean of at least two independent experiments, read-out: IC50 (μM) ± SE (ALDH2)

Sequence of ALDH1a1 (P00352 whole entry): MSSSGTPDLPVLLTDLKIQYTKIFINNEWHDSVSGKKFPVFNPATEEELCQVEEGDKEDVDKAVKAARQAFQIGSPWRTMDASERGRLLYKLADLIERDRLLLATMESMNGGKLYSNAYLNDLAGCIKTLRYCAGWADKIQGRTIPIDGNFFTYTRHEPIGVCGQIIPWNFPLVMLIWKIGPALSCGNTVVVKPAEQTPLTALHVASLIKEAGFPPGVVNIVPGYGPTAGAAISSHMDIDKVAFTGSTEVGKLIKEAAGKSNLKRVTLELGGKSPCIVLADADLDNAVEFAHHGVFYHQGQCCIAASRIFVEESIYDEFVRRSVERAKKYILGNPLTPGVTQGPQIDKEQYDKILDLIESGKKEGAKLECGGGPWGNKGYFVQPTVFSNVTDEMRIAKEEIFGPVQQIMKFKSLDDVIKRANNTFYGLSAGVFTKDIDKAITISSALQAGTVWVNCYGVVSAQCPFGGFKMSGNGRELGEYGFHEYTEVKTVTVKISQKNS

**Q.** Which results are given for `CCN(Cc1ccc(OC)cc1)C(=S)SSC(=S)N(CC)Cc1ccc(OC)cc1`?
**A.** IC50 (ALDH1a1; [1]): 0.58 ± 0.41 µM; Aldh2 (IC50, μM) ± SE (ALDH2; Table III): No inhibition

**Q.** What does the source list for `NCCS` [Compound 3, Cysteamine, reference compound]?
**A.** activity against ALDH1a1 (in words) (ALDH1a1): none of them showed any activity; ALDH2 inhibitory activity (in words) (ALDH2): none of them showed any activity

**Q.** `NCCSSCCN` [Compound 4, Cystamine, reference compound] was tested. Which “activity against ALDH1a1 (in words)” value (ALDH1a1) did it give?
**A.** none of them showed any activity

**Q.** What about the IC50 (ALDH1a1; [2]) of the same compound?
**A.** > 100 µM

**Q.** What about the “ALDH2 inhibitory activity (in words)” value (ALDH2) of the same compound?
**A.** none of them showed any activity

**Q.** For `CCN(Cc1ccc(C(=O)O)cc1)C(=S)SSC(=S)N(CC)Cc1ccc(C(=O)O)cc1` [Compound I-2d], which IC50 (ALDH1a1; [2]) is on record?
**A.** 2.96 ± 1.52 µM

**Q.** What about the “decrease in ALDH1a1 inhibitory activity” value (ALDH1a1; relative to I-2a) of the same compound?
**A.** tenfold decrease

**Q.** And the “FAAH inhibitory activity (in words)” value (human FAAH (hFAAH))?
**A.** devoid of anti-FAAH activity

**Q.** And the IC50 (ALDH2; [3])?
**A.** 99.36 ± 0.64 µM

**Q.** And the IC50 (human MAGL (hMAGL))?
**A.** 22.6 ± 16.8 µM

**Q.** What about the “decrease in inhibitory activity against MAGL” value (human MAGL (hMAGL)) of the same compound?
**A.** 20 fold

**Q.** Which IC50 (ALDH1a1; [2]) does the source give for `CCN(CCC(=O)O)C(=S)SSC(=S)N(CC)CCC(=O)O` [Compound I-2e, bis(N-carboxylethylethylthiocarbamoyl)disulfide] here?
**A.** 0.15 ± 0.14 µM

**Q.** What about the IC50 (human FAAH (hFAAH)) of the same compound?
**A.** 12.8 ± 1.57 µM

**Q.** And the IC50 (ALDH2; [3])?
**A.** 0.85 ± 0.55 µM

**Q.** What about the IC50 (human MAGL (hMAGL)) of the same compound?
**A.** 0.87 ± 0.21 µM

**Q.** Which results are given for `CCN(CCO)C(=S)SSC(=S)N(CC)CCO` [Compound I-2f, bis(N-hydroxyethylethylthiocarbamoyl)disulfide]?
**A.** IC50 (ALDH1a1; [2]): 2.54 ± 1.15 µM; IC50 (human FAAH (hFAAH)): 25.4 ± 3.26 µM; IC50 (ALDH2; [3]): 25.7 ± 12.3 µM; IC50 (human MAGL (hMAGL)): 0.72 ± 0.2 µM

**Q.** With `CN(C)C(=S)SSC(=S)N(C)C` [Compound I-2g, reference compound] as the compound, how does the IC50 (ALDH1a1; [2]) read?
**A.** 0.02 ± 0.01 µM

**Q.** And the IC50 (ALDH2; [3])?
**A.** 0.32 ± 0.04 µM

**Q.** What does the source list for `CC(C)N(C(=S)SSC(=S)N(C(C)C)C(C)C)C(C)C` [Compound I-2h, reference compound]?
**A.** IC50 (ALDH1a1; [2]): 2.85 ± 1.08 µM; IC50 (ALDH2; [3]): > 100 µM; IC50 (human MAGL (hMAGL)): 1.89 ± 0.37 µM

**Q.** What does the source list for `CC(C)CN(CC(C)C)C(=S)SSC(=S)N(CC(C)C)CC(C)C` [Compound I-2j, reference compound]?
**A.** activity against ALDH1a1 (in words) (ALDH1a1): complete loss of activity; IC50 (ALDH1a1; [2]): > 100 µM; FAAH inhibitory activity (in words) (human FAAH (hFAAH)): no inhibition; IC50 (human MAGL (hMAGL)): 13.4 ± 4.79 µM; hydrolytic activity of inhibited MAGL upon addition of dithiothreitol (human MAGL (hMAGL); dithiothreitol (10 mM)): restored; decrease in inhibitory activity against MAGL (human MAGL (hMAGL)): up to 15 fold

**Q.** `CCOCCNC(=S)SSC(=S)NCCOCC` [Compound I-2m, reference compound] was tested. Which IC50 (ALDH1a1; [2]) did it give?
**A.** 0.04 ± 0.03 µM

**Q.** Which results are given for `CCN(CC)C(=S)SSC(=S)N(CC)CC` [Disulfiram, reference compound]?
**A.** IC50 (human FAAH (hFAAH); listed as II-2a): 36.2 ± 11 µM; IC50 (human MAGL (hMAGL)): 0.95 ± 0.26 µM

**Q.** Which results are given for `CCOC(=O)CCN(CC)C(=S)SSC(=S)N(CC)CCC(=O)OCC` [II-2g, bis(N-ethoxycarbonylethylethylthiocarbamoyl)disulphide]?
**A.** IC50 (human FAAH (hFAAH)): 10.1 ± 0.68 µM; IC50 (human MAGL (hMAGL)): 3.53 ± 1.32 µM

**Q.** What does the source list for `CCN(Cc1ccc(C(F)(F)F)cc1)C(=S)SSC(=S)N(CC)Cc1ccc(C(F)(F)F)cc1` [III-1n, bis(N-4-trifluoromethylbenzylethylthiocarbamoyl)disulphide]?
**A.** Aldh1a1 (IC50, μM) ± SE (ALDH1a1; Table III): No inhibititon; Aldh2 (IC50, μM) ± SE (ALDH2; Table III): No inhibition

**Q.** Which IC50 (ALDH1a1; [1]) does the source give for `CCN(Cc1ccncc1)C(=S)SSC(=S)N(CC)Cc1ccncc1` [III-2o, bis(N-(4-pyridylmethyl)ethylthiocarbamoyl) disulphide] here?
**A.** 5.76 ± 4.01 µM

**Q.** What about the “Aldh2 (IC50, μM) ± SE” value (ALDH2; Table III) of the same compound?
**A.** No inhibition

**Q.** What does the source list for `CCN(Cc1ccco1)C(=S)SSC(=S)N(CC)Cc1ccco1` [III-2p, bis(N-(2-furylmethyl)ethylthiocarbamoyl)disulphide]?
**A.** IC50 (ALDH1a1; [1]): 0.39 ± 0.27 µM; IC50 (ALDH2; Table III, read-out: Aldh2 (IC50, μM) ± SE): 200 ± 129 µM

**Q.** For `CCN(Cc1cccs1)C(=S)SSC(=S)N(CC)Cc1cccs1` [III-2q, bis(N-(2-thienylmethyl)ethylthiocarbamoyl)disulphide], which IC50 (ALDH1a1; [1]) is on record?
**A.** 0.39 ± 0.31 µM

**Q.** What about the “Aldh2 (IC50, μM) ± SE” value (ALDH2; Table III) of the same compound?
**A.** No inhibition

**Q.** For `CCN(Cc1ccsc1)C(=S)SSC(=S)N(CC)Cc1ccsc1` [III-2r, bis(N-(3-thienylmethyl)ethylthiocarbamoyl)disulphide], which IC50 (ALDH1a1; [1]) is on record?
**A.** 0.17 ± 0.1 µM

**Q.** What about the “Aldh2 (IC50, μM) ± SE” value (ALDH2; Table III) of the same compound?
**A.** No inhibition

**Q.** For `O=C(Oc1ccc([N+](=O)[O-])cc1)N1CCN(Cc2cccc(Oc3ccccc3)c2)CC1` [JZL-195, reference compound], which IC50 (human FAAH (hFAAH)) is on record?
**A.** 0.04 ± 0.02 µM

**Q.** Which results are given for “N-Acetyl-L-Cysteamine [Compound 5, reference compound]”?
**A.** activity against ALDH1a1 (in words) (ALDH1a1): none of them showed any activity; ALDH2 inhibitory activity (in words) (ALDH2): none of them showed any activity

**Q.** Which results are given for “bis(N-4-ethoxycarbonylbenzylethylthiocarbamoyl)disulphide [II-2l]”?
**A.** FAAH inhibitory activity (in words) (human FAAH (hFAAH)): devoid of anti-FAAH activity; IC50 (human MAGL (hMAGL)): 5.03 ± 2.35 µM

**Q.** How did the IC50 (ALDH1a1; [2]) turn out when “bis(N-4-hydroxybenzylethylthlocarbamoyl)disulfide [Compound I-2c]” was run?
**A.** 0.21 ± 0.04 µM

**Q.** And the “catalytic activity of inhibited ALDH1a1 after addition of dithiothreitol” value (ALDH1a1; addition of dithiothreitol)?
**A.** completely restored

**Q.** What about the IC50 (human FAAH (hFAAH)) of the same compound?
**A.** 38.2 ± 7.96 µM

**Q.** And the IC50 (ALDH2; [3])?
**A.** 10.9 ± 0.61 µM

**Q.** What about the IC50 (human MAGL (hMAGL)) of the same compound?
**A.** 3.71 ± 1.28 µM
